{"source": "patent US20240390359A1", "about": "“METHODS FOR THE TREATMENT AND PREVENTION OF NON-VIRAL TICK-BORNE DISEASES AND SYMPTOMS THEREOF” (priority 2023, published 2024)", "origin": "cited, not measured here", "key": {"Babesia microti": {"tested_on": "Babesia microti", "settings": "Mongolian jirds; primaquine given daily; cited from earlier work"}, "P. falciparum [1]": {"tested_on": "P. falciparum", "settings": "250 mg/day; cited from earlier work"}, "P. falciparum [2]": {"tested_on": "P. falciparum", "settings": "250 mg/day; cited from earlier work", "remark": "listed apart in the source"}, "[3]": {"tested_on": "various serovars of Leptospira", "settings": "exposure for as little as 30 min; cited from earlier work"}, "[4]": {"tested_on": "Trypanosome brucei blood stage forms", "settings": "exposure for 90 minutes; cited from earlier work"}, "Treponema palludum": {"tested_on": "Treponema palludum", "settings": "50 or 100 microM for two hours in a 3% oxygen atmosphere; cited from earlier work"}, "[5]": {"tested_on": "Borrelia burgdoferi B31 5A18NP1 strain", "settings": "4 h; cited from earlier work"}, "Babesia parasites": {"tested_on": "Babesia parasites", "settings": "100 microM for 2h, in vitro; cited from earlier work"}, "[6]": {"settings": "600 mg over three days then 200 mg weekly for up to one year; cited from earlier work"}, "Babesia": {"tested_on": "Babesia", "settings": "mice; cited from earlier work"}, "B. microti": {"tested_on": "B. microti", "settings": "one patient, prior rituximab; tafenoquine as monotherapy for six weeks at approved malaria prevention dose; cited from earlier work"}, "[7]": {"settings": "cited from earlier work"}, "Plasmodium vivax": {"tested_on": "Plasmodium vivax", "settings": "monotherapy 400 mg/day for three days, cited from earlier work"}, "[8]": {"tested_on": "intracellular amastigote forms of Leishmania major", "settings": "cited from earlier work"}, "[9]": {"tested_on": "blood stages of P. falciparum", "settings": "in vivo; cited from earlier work"}, "B. rodhaini [10]": {"tested_on": "B. rodhaini", "settings": "cited from earlier work"}, "[11]": {"settings": "cited from earlier work", "remark": "listed apart in the source"}, "[12]": {"tested_on": "extracellular blood stage forms of Trypanosoma brucei", "settings": "cited from earlier work"}, "Plasmodium falciparum": {"tested_on": "Plasmodium falciparum", "settings": "600 mg loading dose followed by 200 mg; challenge three days after last dose; all control subjects developed parasitemia; cited from earlier work"}, "B. gibsoni": {"tested_on": "B. gibsoni", "settings": "splenectomized dogs, cited from earlier work"}, "[13]": {"tested_on": "free-living gram-negative and gram-positive bacteria", "settings": "cited from earlier work"}, "B. rodhaini [14]": {"tested_on": "B. rodhaini", "settings": "single dose of 20 mg/kg; immunocompromised SCID mice; cited from earlier work"}, "[15]": {"settings": "in vivo; cited from earlier work"}, "[16]": {"tested_on": "P. falciparum gametocytes", "settings": "single dose combined with dihydroartemisinin/piperaquine; cited from earlier work"}, "Pneumocystis": {"tested_on": "Pneumocystis", "settings": "mice; cited from earlier work"}}}
{"smiles": "COc1cc(NC(C)CCCN)c2nccc(C)c2c1", "note": "(centres unmarked) [4-methyl substituted primaquine]", "values": [{"measurement": "efficacy against Babesia microti", "setting": "Babesia microti", "result": "more efficacious than primaquine"}]}
{"smiles": "CC[C@H]1OC(=O)[C@H](C)[C@@H](O[C@H]2C[C@@](C)(OC)[C@@H](O)[C@H](C)O2)[C@H](C)[C@@H](O[C@@H]2O[C@H](C)C[C@H](N(C)C)[C@H]2O)[C@](C)(O)C[C@@H](C)CN(C)[C@H](C)[C@@H](O)[C@]1(C)O", "note": "[Azithromycin]", "values": [{"measurement": "Protective Efficacy (%) Relative to Placebo, PF/Non-immune or Malaria-naïve", "setting": "P. falciparum [1]", "result": "72% (Taylor)"}, {"measurement": "Protective Efficacy (%) Relative to Placebo, Pf/Semi-Immune", "setting": "P. falciparum [2]", "result": "83% (Anderson)"}]}
{"smiles": "OO", "note": "[hydrogen peroxide]", "values": [{"measurement": "exogenous hydrogen peroxide concentrations that killed", "setting": "[3]", "result": "< 180", "unit": "µM"}, {"measurement": "hydrogen peroxide concentration that killed blood stage forms", "setting": "[4]", "result": "approximately 140 microM"}, {"measurement": "growth", "setting": "Treponema palludum", "result": "significantly inhibited"}, {"measurement": "lowest concentration that inhibited growth", "setting": "[5]", "result": 62.5, "unit": "µM"}, {"measurement": "killing of Babesia parasites", "setting": "Babesia parasites", "result": "kills Babesia parasites in vitro"}]}
{"smiles": "COc1cc(C)c2c(Oc3cccc(C(F)(F)F)c3)c(OC)cc(NC(C)CCCN)c2n1", "note": "(centres unmarked) [tafenoquine, N (4)-[2,6-Dimethoxy-4-methyl-5-[3-(trifluoromethyl)phenoxy]quinolin-8-yl] pentane-1,4-diamine]", "values": [{"measurement": "overall rate of adverse events relative to placebo", "setting": "[6]", "result": "without increasing the overall rate of adverse events"}, {"measurement": "specific adverse events with increased risk", "setting": "[6]", "result": "gastrointestinal effects [mild to moderate] and cornea verticillata"}, {"measurement": "single dose that cleared Babesia parasitemia", "setting": "Babesia", "result": 20, "unit": "mg/kg"}, {"measurement": "clinical outcome of babesiosis treatment", "setting": "B. microti", "result": "the patient was cured"}, {"measurement": "doses that may not be well tolerated", "setting": "[7]; G6PD deficient subjects", "result": "≥ 300", "unit": "mg"}, {"measurement": "doses that may be well tolerated", "setting": "[7]; G6PD normal adult subjects", "result": "up to 400 mg"}, {"measurement": "doses often not well tolerated", "setting": "[7]; adult subjects regardless of G6PD status", "result": "above 400 mg"}, {"measurement": "day by which all patients cleared blood stage parasites", "setting": "Plasmodium vivax", "result": "≤ 8", "unit": "days"}, {"measurement": "relapses during the follow up period", "setting": "Plasmodium vivax; patients with data available", "result": "no relapses"}, {"measurement": "potency of killing", "setting": "[8]", "result": "< 4", "unit": "µM"}, {"measurement": "activity against the blood stages of P. falciparum", "setting": "[9]", "result": "quite effective"}, {"measurement": "formation of vacuoles in B. rodhaini blood stages", "setting": "B. rodhaini [10]; single dose of 20 mg/kg in mice", "result": "induces the formation of large vacuoles"}, {"measurement": "parasitemia", "setting": "B. rodhaini [10]; single dose of 20 mg/kg, Balb/c mice", "result": "cleared parasitemia"}, {"measurement": "survival", "setting": "B. rodhaini [10]; single dose of 20 mg/kg, Balb/c mice, infection uniformly lethal in untreated animals", "result": 100, "unit": "%"}, {"measurement": "antioxidant enzymes in B. rodhaini", "setting": "B. rodhaini [10]; single dose treatment in mice", "result": "upregulated"}, {"measurement": "effect on QTC prolongation associated with chloroquine", "setting": "[11]; coadministered with chloroquine", "result": "did not increase the QTC prolongation"}, {"measurement": "effect on QTC interval", "setting": "[11]; doses of up to 1200 mg over three days", "result": "not found to increase the upper limit of 90% confidence interval of the QTC interval"}, {"measurement": "potency of killing", "setting": "[12]", "result": "< 4", "unit": "µM"}, {"measurement": "development of blood stage parasitemia after challenge", "setting": "Plasmodium falciparum", "result": "none of the tafenoquine subjects did"}, {"measurement": "parasitemia", "setting": "B. gibsoni; 100 mg tablet (9-11.5 mg/kg) on Days 12, 19 and 48", "result": "sufficient to clear and cure"}, {"measurement": "symptoms of infections such as anorexia, elevated respiration and pulse", "setting": "B. gibsoni", "result": "alleviated"}, {"measurement": "activity against gram-negative versus gram-positive bacteria", "setting": "[13]", "result": "much less active against free-living gram-negative bacteria than free-living gram-positive bacteria"}, {"measurement": "death", "setting": "B. rodhaini [14]", "result": "delayed not prevent"}, {"measurement": "half-life", "setting": "[15]", "result": 14, "unit": "days"}]}
{"smiles": "COc1cc(NC(C)CCCN)c2ncccc2c1", "note": "(centres unmarked) [primaquine]", "values": [{"measurement": "single dose that cleared Babesia parasitemia", "setting": "Babesia", "result": 100, "unit": "mg/kg"}, {"measurement": "time until gametocyte infectivity statistically lower than reference values", "setting": "[16]", "result": "two days post-dosing"}, {"measurement": "cure of Pneumocystis infections", "setting": "Pneumocystis", "result": "must be combined with clindamycin"}]}
